This is an account of results in patent US12187681B2 (Shanghai East Hospital, priority 2019, dated 2025).

Structures can show the parent of a compound that is named as a salt.

What all share (assay type): cell-based
Data set [1] has as its target T1, Iks potassium voltage-gated channel (KCNQ1 and KCNE1) (Homo sapiens, UniProt P51787).
T1 construct: expressed in transfected cells; host or cells: CHO
In words: Iks channel whole-cell patch clamp (Ion Channel Activity Measurement). The settings on record: room temperature. (In patch-clamp work, channel activity is measured electrically.)
Protocol: (§3) CHO cell line stably expressing Iks potassium voltage-gated channel subfamily Q member 1(KCNQ1) and potassium voltage-gated channel subfamily E regulatory subunit 1 (KCNE1), cDNA strictly similar to GenBank accession number: NM_000218 and NM_000219
(§4) Cells expressing channels were cultured in medium supplemented with 20% FBS in HAM'S F12 culture dish. Cells grew in a humidified incubator at 37° C. under 5% carbon dioxide. To passage cells, remove poor medium and rinse the cells once with PBS 1X. […] Place plate on a 37° C. warming incubator 5 min. As soon as cells are detached, add 5 ml of 37° C. complete medium. Draw cell suspension into a sterile pipet and homogenize cells gently to dissociate cells aggregates. Amplify or maintain the cells by seeding 2.5*105 cells in a 6 cm dish (final volume: 5 ml). To maintain electrophysiological performances, cell density must not exceed 80%. On the day before patch clamp experiment, 3*103 cells were seeded on coverslips in the 24-well plate and incubated at 37° C. in 5% carbon dioxide.
(§5) Extracellular solution (mM): 140 NaCl, 2.5 KCl, 1 MgCl2, 2 CaCl2, 5 Glucose, 10 HEPES, pH=7.4 with NaOH.
(§6) Pipette solution (mM): 120 K-aspartic, 10 HEPES, 5 MgCl2, 5 EGTA, 4 Na2-ATP 0.3 Na2-GTP, 14 mM Phosphocreatine disodium salt, 20 u/mL Creatine phosphor kinse pH 7.2 with KOH
(§7) Glass pipette (BF150-86-10, Sutter Instruments) was made by puller (P97, Sutter Instruments). The glass pipette was manipulated using Micro-manipulator (Carm-C-S, MCI Instruments) under the microscope (AE31EF-INV, Motic). After touching the cell, a slight suction was applied to achieve high seal (GΩ). Fast capacitance (in pF) compensation was made after high seal was achieved; after achieving high seal, the membrane was broken, Cell capacitance (in pF) compensation was made from whole-cell capacitance compensation after the whole cell mode was achieved. No leak subtraction was made.
(§8) Cell was incubated with the test article for 5 minutes, or until the current reached a steady-state level. Multiple concentrations of test article were tested. The test articles were applied gradually from low to high concentration. The test and control solutions were flown into a recording chamber mounted on the stage of an inverted microscope via a gravity-fed solution delivery system. During the experiment, solutions were withdrawn from the recording chamber by vacuum aspiration. Each concentration was tested at multiple times. Each cell acted as its own control. All tests were performed at room temperature (23-25° C.).
(§9) IKs current was measured using a pulse protocol consisting of −80 mV holding potential increment up to +60 mV over a period of 5 seconds. And then quickly repolarizedat −40 mV and maintained for 4 seconds.

Data set [2] deals with T2, human calcium channel, voltage-dependent, L type (CaV1.2: CACNA1C, CACNB2, CACNA2D1) (Homo sapiens, UniProt Q13936).
T2 construct: expressed in transfected cells; host or cells: CHO
T2 sequence (Q13936 1-2138 isoform Q13936-12): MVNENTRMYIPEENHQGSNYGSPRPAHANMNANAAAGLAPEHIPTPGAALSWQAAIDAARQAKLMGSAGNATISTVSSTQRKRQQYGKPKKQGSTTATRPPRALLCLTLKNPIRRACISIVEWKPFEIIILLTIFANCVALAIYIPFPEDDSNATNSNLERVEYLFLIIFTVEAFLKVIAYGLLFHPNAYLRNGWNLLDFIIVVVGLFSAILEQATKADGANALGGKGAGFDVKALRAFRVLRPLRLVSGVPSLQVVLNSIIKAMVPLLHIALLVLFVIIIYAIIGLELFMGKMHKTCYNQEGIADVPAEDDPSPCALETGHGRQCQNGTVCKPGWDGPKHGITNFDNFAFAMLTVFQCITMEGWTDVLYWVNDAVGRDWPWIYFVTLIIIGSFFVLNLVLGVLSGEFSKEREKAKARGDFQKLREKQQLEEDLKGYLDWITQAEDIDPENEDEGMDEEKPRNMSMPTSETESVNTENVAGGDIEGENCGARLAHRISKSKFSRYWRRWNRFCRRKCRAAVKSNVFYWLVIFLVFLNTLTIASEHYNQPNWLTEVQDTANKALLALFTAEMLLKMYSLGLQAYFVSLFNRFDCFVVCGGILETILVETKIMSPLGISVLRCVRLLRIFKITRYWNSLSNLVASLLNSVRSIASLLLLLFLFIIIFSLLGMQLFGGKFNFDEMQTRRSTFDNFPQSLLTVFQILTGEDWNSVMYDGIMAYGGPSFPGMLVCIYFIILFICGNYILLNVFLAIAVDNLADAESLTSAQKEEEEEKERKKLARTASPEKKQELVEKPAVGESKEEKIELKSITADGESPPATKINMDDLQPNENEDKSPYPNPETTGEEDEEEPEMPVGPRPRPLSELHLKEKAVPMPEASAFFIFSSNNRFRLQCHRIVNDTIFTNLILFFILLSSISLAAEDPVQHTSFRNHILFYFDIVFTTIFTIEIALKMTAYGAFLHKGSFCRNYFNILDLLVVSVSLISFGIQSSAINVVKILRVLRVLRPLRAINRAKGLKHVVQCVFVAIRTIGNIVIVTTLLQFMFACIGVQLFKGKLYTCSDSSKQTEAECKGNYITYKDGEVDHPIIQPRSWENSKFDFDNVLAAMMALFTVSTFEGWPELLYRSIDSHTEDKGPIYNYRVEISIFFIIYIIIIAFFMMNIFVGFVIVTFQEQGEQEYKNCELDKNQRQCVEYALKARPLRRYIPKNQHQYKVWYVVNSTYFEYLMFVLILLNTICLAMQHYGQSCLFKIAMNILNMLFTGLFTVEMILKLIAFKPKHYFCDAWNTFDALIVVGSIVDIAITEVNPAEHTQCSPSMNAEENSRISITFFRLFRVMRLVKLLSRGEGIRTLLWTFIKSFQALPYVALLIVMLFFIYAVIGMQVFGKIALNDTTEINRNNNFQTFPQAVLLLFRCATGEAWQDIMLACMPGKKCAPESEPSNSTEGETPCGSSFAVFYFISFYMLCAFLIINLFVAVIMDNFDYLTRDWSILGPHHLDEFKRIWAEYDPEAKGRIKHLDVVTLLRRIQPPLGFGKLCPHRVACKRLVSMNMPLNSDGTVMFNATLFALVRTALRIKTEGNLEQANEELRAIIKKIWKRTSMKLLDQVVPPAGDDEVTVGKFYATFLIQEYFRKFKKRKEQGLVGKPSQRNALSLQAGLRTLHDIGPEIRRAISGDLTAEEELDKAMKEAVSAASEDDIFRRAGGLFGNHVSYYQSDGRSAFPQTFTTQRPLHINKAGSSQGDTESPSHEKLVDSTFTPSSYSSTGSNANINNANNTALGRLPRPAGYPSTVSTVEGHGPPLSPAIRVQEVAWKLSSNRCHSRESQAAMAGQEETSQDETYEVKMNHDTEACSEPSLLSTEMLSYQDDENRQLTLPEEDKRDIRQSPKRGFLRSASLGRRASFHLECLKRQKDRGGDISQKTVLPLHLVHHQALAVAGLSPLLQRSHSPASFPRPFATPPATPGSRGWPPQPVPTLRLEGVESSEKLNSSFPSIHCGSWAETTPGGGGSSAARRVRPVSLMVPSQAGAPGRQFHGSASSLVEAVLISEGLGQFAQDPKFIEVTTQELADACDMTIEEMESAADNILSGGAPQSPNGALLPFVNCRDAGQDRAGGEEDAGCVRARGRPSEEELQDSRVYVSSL
T2 sequence (Q08289 1-605 isoform Q08289-2 partner): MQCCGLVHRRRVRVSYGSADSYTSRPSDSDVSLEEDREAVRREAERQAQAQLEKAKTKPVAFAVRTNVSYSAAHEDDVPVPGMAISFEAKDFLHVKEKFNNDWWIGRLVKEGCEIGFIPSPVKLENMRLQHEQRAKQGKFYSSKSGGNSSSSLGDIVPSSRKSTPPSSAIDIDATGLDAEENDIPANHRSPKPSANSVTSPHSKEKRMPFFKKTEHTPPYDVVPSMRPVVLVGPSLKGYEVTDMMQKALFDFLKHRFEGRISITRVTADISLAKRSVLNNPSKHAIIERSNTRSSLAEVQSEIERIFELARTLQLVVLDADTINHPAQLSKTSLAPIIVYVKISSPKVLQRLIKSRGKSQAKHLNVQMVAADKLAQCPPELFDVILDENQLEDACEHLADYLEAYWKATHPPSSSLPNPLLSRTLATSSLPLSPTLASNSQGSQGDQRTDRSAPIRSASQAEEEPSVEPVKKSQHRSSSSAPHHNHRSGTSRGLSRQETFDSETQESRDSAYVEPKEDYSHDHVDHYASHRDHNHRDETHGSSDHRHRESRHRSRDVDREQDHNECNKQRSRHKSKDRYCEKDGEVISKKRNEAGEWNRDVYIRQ
T2 sequence (P54289 25-1091 isoform P54289-2 partner limits assumed): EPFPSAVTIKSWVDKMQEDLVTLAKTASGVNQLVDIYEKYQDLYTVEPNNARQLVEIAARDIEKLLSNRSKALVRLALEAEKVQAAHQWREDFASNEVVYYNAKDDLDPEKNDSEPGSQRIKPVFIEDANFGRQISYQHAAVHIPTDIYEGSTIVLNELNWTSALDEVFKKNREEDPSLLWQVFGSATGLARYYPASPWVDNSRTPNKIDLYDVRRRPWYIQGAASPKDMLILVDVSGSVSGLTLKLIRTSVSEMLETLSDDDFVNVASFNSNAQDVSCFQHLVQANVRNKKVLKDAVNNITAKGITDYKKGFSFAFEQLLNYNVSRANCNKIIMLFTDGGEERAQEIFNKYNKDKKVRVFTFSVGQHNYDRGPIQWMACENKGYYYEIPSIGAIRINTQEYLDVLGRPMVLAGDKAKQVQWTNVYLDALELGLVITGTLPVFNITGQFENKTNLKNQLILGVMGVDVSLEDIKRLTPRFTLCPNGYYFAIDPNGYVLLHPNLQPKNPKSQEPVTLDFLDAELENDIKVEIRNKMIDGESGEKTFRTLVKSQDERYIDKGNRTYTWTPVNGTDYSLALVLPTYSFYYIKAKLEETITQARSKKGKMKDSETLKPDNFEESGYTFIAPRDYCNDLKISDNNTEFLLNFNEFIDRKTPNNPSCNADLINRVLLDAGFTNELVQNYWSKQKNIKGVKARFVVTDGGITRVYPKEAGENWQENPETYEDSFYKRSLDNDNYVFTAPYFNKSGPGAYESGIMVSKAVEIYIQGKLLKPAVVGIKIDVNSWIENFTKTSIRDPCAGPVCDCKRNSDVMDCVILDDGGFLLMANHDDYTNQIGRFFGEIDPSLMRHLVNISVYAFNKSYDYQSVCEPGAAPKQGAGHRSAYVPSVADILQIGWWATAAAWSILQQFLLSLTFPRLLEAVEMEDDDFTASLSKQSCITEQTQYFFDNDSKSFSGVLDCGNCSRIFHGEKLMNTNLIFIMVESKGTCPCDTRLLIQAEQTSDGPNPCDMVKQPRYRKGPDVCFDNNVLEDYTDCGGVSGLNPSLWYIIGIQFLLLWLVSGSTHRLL
T2 sequence (P54289 957-1103 partner limits assumed): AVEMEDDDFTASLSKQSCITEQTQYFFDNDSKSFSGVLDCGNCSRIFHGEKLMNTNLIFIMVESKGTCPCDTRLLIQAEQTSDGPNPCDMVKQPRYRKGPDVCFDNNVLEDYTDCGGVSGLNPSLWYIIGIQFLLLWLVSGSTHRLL
Kind of data set: CaV1.2 channel whole-cell patch clamp (Ion Channel Activity Measurement). The conditions noted are these: room temperature; for Cav1.2 1 μM (ion-channel inhibition): 1 μM test article; for CaV 1.2 10 μM (ion-channel inhibition): 10 μM test article. In a few lines:
(§1)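 Whole-cell patch clamp was run on CHO cells stably expressing CACNA1C/CACNB2/CACNA2D1 at 23–25 °C, with 10 mM CaCl2 TEA bath (pH 7.4) and CsCl pipette solution (pH 7.2). Currents were evoked from −80 mV to +10 mV for 0.3 s every 20 s without leak subtraction. Ascending concentrations were each applied for 5 min or until steady state.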

For data set [3], the target named is T3, human ERG (ether-a-go-go related gene) potassium channel (Homo sapiens, UniProt Q12809).
T3 construct: expressed in transfected cells; host or cells: HEK293
In words: hERG channel whole-cell patch clamp (Ion Channel Activity Measurement). The conditions noted are these: room temperature; for hERG 1 μM (ion-channel inhibition): 1 μM test article; for hERG 10 μM (ion-channel inhibition): 10 μM test article. In a few lines:
(§2)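 HEK293 cells stably expressing hERG (NM_000238) were recorded by whole-cell patch clamp at 23-25° C. Holding potential −80 mV, step to 30 mV for 2.5 s, tail currents at −50 mV for 4 s, pulses every 10 s. Each concentration was perfused low to high for 5 min or to steady state, with each cell as its own control.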
For orientation: The hERG channel carries a current that helps repolarise heart muscle cells.

Data set [4] has as its target T4, Iks potassium channel (KCNQ1/KCNE1) (Homo sapiens, UniProt P51787).
T4 construct: expressed in transfected cells; host or cells: CHO
Kind of data set: Iks channel whole-cell patch clamp (Ion Channel Activity Measurement). The conditions noted are these: human, CHO cells stably expressing Iks channel (KCNQ1 and KCNE1), room temperature; for inhibition at 5 min, 1 μM: pH 7.4, 1 μM test article; for inhibition at 5 min, 10 μM: pH 7.4, 10 μM test article.
Protocol: as §3, §4, §5, §6, §7, §8, §9

For data set [5], the target named is T5, CaV1.2 (L-type voltage-dependent calcium channel; CACNA1C, CACNB2, CACNA2D1) (Homo sapiens, UniProt Q13936).
T5 construct: expressed in transfected cells; host or cells: CHO
T5 sequence (Q13936 1-2138 isoform Q13936-12): as the sequence (Q13936 1-2138 isoform Q13936-12) above
T5 sequence (Q08289 1-605 isoform Q08289-2 partner): as the sequence (Q08289 1-605 isoform Q08289-2 partner) above
T5 sequence (P54289 25-1091 isoform P54289-2 partner limits assumed): as the sequence (P54289 25-1091 isoform P54289-2 partner limits assumed) above
T5 sequence (P54289 957-1103 partner limits assumed): as the sequence (P54289 957-1103 partner limits assumed) above
In words: CaV1.2 channel whole-cell patch clamp (Ion Channel Activity Measurement). The conditions noted are these: human, room temperature; for inhibition at 5 min, 1 μM: pH 7.4, 1 μM test article; for inhibition at 5 min, 10 μM: pH 7.4, 10 μM test article, read-out: CaV 1.2 10 μM (ion-channel inhibition). In a few lines: as §1

Data set [6] concerns the target T6, hERG (human ether-a-go-go related gene potassium channel, KCNH2) (Homo sapiens, UniProt Q12809).
T6 construct: expressed in transfected cells; host or cells: HEK293
Kind of data set: hERG channel whole-cell patch clamp (Ion Channel Activity Measurement). The conditions noted are these: human, HEK293 cells expressing the human ERG potassium channel, room temperature; for inhibition at 1 μM: pH 7.4, 1 μM test article; for inhibition at 10 μM: pH 7.4, 10 μM test article. In a few lines:
as §2

The inhibition is the relative decrease from the control value, in per cent.

For `CCN(CC)CCOc1ccc2ccccc2c1Cc1c(O)ccc2ccccc12.O=CO` [Compound A093, 1-((2-(2-(diethylamino)ethoxy)naphthalen-1-yl)methyl)naphthalen-2-ol formate], the “Iks 1 μM (ion-channel inhibition)” value in data set [1] (1 μM test article) is recorded as “D (D = <25%)”. Also, the “Iks 10 μM (ion-channel inhibition)” value in data set [1] (10 μM test article) was “A (A = 75-100%)”. In addition, in data set [2], the “Cav1.2 1 μM (ion-channel inhibition)” value is recorded as “C (C = 25-50%)” and the “CaV 1.2 10 μM (ion-channel inhibition)” value was “A (A = 75-100%)”. In data set [3], the “hERG 1 μM (ion-channel inhibition)” value is reported as “A (A = 75-100%)” and the “hERG 10 μM (ion-channel inhibition)” value is on record as “A (A = 75-100%)”.

For the compound `Cc1cc2ccccc2c(Cc2c(O)ccc3ccccc23)c1O` [Compound A031, 1-((2-hydroxynaphthalen-1-yl)methyl)-3-methylnaphthalen-2-ol], in data set [4], the inhibition at 5 min, 1 μM is less than 25% and the inhibition at 5 min, 10 μM lay within 50 to 75%. For the same compound, in data set [5], the inhibition at 5 min, 1 μM is less than 25% and the inhibition at 5 min, 10 μM lay in the range of 25 to 50%. Further, in data set [6], the inhibition at 1 μM was less than 25% and the inhibition at 10 μM was in the range of 50 to 75%.

In data set [4], `Oc1ccc2ccccc2c1Cc1c(O)ccc2ccccc12` [Compound A001, 1,1′-methylenebis(naphthalen-2-ol)] returned an inhibition at 5 min, 1 μM of 50 to 75% and an inhibition at 5 min, 10 μM of 75 to 100%. Also, in data set [5], the inhibition at 5 min, 1 μM is less than 25% and the inhibition at 5 min, 10 μM is 75 to 100%. In data set [6], this compound returned an inhibition at 1 μM of less than 25% and an inhibition at 10 μM of 75 to 100%.

In the case of `COc1ccc2ccccc2c1Cc1c(OCC[N+]2(C)CCOCC2)ccc2ccccc12` [Compound A130-2, 4-(2-((1-((2-methoxynaphthalen-1-yl)methyl)naphthalen-2-yl)oxy)ethyl)-4-methylmorpholin-4-ium formate], in data set [4], the inhibition at 5 min, 1 μM is less than 25% and the inhibition at 5 min, 10 μM fell in the range of 25 to 50%. For the same compound, in data set [5], the inhibition at 5 min, 1 μM is 50 to 75% and the inhibition at 5 min, 10 μM lay in the range of 75 to 100%. Also, the inhibition at 1 μM in data set [6] is 75 to 100%.

With `Oc1cccc(-c2ccccc2)c1Cc1c(O)cccc1-c1ccccc1` [Compound A034, 2,2″-methylenebis(([1,1′-biphenyl]-3-ol))], in data set [2], the “Cav1.2 1 μM (ion-channel inhibition)” value is “D (D = <25%)” and the “CaV 1.2 10 μM (ion-channel inhibition)” value was “B (B = = 50-75%)”. Besides, in data set [3], the “hERG 1 μM (ion-channel inhibition)” value is recorded as “D (D = <25%)” and the “hERG 10 μM (ion-channel inhibition)” value is reported as “D (D = <25%)”.

Turning to `CN(c1c(O)ccc2ccccc12)c1c(O)ccc2ccccc12` [Compound A003, 1,1′-(methylazanediyl)bis(naphthalen-2-ol)], in data set [4], the inhibition at 5 min, 1 μM was 25 to 50% and the inhibition at 5 min, 10 μM fell in the range of 50 to 75%. Further, in data set [5], the inhibition at 5 min, 1 μM is less than 25% and the inhibition at 5 min, 10 μM was 25 to 50%. In addition, in data set [6], the inhibition at 1 μM was 25 to 50% and the inhibition at 10 μM was in the range of 75 to 100%.

In data set [4], `CCN(CC)CCOc1ccc2ccccc2c1Sc1c(OC)ccc2ccccc12` [Compound A152, N,N-diethyl-2-((1-((2-methoxynaphthalen-1-yl)thio)naphthalen-2-yl)oxy)ethan-1-amine] displayed an inhibition at 5 min, 1 μM of less than 25% and an inhibition at 5 min, 10 μM of 50 to 75%. Also, in data set [5], the inhibition at 5 min, 1 μM is less than 25% and the inhibition at 5 min, 10 μM was 75 to 100%. In data set [6], this compound gave an inhibition at 1 μM of 75 to 100%.

In the case of `O=S(=O)(Nc1ccc2ccccc2c1Cc1c(O)ccc2ccccc12)c1ccccc1` [Compound A026, N-(1-((2-hydroxynaphthalen-1-yl)methyl)naphthalen-2-yl)benzenesulfonamide], in data set [4], the inhibition at 5 min, 1 μM lay in the range of 75 to 100% and the inhibition at 5 min, 10 μM fell in the range of 75 to 100%. Also, in data set [5], the inhibition at 5 min, 1 μM is less than 25% and the inhibition at 5 min, 10 μM fell in the range of 75 to 100%. Besides, in data set [6], the inhibition at 1 μM was less than 25% and the inhibition at 10 μM was 25 to 50%.

`CCN(CC)CCOc1ccc2ccccc2c1Sc1c(O)ccc2ccccc12` [Compound A151, 1-((2-(2-(diethylamino)ethoxy)naphthalen-1-yl)thio)naphthalen-2-ol]: in data set [4], the inhibition at 5 min, 1 μM lay within 25 to 50% and the inhibition at 5 min, 10 μM is 75 to 100%. In addition, in data set [5], the inhibition at 5 min, 1 μM is less than 25% and the inhibition at 5 min, 10 μM was in the range of 75 to 100%. Moreover, in data set [6], the inhibition at 1 μM is 75 to 100% and the inhibition at 10 μM was in the range of 75 to 100%.
